Key:
[1] = target: T1, 5-hydroxytryptamine receptor 1A (Rattus norvegicus, UniProt P19327); experiment: In vitro affinity towards 5-hydroxytryptamine 1A receptor using [3H]8-OH-DPAT as radioligand in hippocampus; assay type: tissue-based
T1 sequence (P19327 whole entry): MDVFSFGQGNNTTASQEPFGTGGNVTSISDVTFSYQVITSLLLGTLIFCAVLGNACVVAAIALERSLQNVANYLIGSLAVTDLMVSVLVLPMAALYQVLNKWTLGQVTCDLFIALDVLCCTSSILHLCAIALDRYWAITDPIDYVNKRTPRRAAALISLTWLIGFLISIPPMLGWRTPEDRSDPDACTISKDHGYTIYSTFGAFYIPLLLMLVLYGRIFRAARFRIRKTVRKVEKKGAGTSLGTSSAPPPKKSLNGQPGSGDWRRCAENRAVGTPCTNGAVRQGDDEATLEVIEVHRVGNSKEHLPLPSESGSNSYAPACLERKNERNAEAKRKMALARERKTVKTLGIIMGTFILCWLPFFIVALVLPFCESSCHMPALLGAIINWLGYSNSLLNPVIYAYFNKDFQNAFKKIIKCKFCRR

[2] = target: T2, Adrenergic receptor alpha-1 (Rattus norvegicus, UniProt P15823+P23944+P43140); experiment: Its affinity towards alpha-1 receptor using [3H]WB-4101 as radioligand in whole brain minus cerebellum; assay type: tissue-based
T2 sequence (P15823 whole entry): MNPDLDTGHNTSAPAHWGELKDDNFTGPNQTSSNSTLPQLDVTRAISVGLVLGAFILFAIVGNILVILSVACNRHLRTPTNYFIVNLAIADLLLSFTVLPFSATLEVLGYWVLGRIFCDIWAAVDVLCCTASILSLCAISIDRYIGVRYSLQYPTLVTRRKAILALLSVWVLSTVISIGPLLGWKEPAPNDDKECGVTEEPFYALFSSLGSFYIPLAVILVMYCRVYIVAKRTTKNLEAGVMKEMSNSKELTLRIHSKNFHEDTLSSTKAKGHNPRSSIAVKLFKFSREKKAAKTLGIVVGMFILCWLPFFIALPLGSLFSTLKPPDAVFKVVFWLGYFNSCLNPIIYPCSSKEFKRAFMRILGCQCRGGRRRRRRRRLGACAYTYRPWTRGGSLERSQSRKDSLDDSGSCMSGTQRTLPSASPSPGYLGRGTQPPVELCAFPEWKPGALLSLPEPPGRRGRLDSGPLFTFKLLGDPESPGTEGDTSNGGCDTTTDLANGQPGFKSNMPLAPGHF
T2 sequence (P23944 whole entry): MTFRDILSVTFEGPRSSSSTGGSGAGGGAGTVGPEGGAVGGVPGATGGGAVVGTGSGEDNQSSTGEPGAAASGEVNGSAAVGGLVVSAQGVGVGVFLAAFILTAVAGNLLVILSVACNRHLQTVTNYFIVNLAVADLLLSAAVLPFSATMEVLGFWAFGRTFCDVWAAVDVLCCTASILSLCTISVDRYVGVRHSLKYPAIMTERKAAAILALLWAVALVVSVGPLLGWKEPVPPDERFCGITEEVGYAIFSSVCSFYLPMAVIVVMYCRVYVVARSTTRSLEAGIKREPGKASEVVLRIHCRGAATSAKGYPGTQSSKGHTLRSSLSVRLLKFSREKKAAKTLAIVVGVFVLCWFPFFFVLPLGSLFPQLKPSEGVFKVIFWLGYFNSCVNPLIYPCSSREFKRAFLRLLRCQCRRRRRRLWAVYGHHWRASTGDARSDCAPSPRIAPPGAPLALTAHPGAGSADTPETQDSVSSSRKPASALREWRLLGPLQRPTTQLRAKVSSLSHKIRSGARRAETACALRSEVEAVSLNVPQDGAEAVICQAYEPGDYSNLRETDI
T2 sequence (P43140 whole entry): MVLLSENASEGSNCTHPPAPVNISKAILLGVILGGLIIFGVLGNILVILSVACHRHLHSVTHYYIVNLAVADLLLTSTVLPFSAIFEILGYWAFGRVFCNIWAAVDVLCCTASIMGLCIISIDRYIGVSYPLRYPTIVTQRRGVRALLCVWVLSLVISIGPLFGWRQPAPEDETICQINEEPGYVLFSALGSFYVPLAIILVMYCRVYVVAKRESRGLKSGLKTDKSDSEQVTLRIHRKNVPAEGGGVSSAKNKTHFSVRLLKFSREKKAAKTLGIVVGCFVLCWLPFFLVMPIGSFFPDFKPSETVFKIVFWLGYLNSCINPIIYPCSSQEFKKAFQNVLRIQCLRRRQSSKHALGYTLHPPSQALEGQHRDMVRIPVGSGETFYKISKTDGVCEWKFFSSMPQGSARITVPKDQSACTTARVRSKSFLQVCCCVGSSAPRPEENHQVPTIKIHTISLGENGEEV

[3] = system: Mus musculus; experiment: In vivo effective dose for inhibition of apomorphine-induced climbing in mice after intraperitoneal administration at a dose 20 mg/kg; assay type: functional; conditions: ip
[4] = target: 5-hydroxytryptamine receptor 2A (Rattus norvegicus, UniProt P14842); experiment: In vitro affinity towards 5-hydroxytryptamine 2A receptor using [3H]spiroperidol as radioligand in cortex
Chain of 5-hydroxytryptamine receptor 2A (P14842 whole entry): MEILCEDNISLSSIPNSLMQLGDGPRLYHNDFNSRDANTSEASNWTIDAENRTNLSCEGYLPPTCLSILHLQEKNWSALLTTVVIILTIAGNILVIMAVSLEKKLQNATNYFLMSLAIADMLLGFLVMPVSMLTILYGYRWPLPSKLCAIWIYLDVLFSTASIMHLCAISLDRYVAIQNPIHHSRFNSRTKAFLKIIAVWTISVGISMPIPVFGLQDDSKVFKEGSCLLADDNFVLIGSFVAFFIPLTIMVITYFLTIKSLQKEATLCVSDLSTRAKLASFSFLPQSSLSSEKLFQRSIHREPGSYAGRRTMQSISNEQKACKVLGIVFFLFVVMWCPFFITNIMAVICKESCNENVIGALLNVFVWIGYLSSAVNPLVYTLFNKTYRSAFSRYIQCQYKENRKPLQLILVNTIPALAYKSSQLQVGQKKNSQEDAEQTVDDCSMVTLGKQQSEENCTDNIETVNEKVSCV

[5] = system: Rattus norvegicus; experiment: Compound was evaluated in vivo for its antipsychotic activity for inhibition of apomorphine-induced stereotypy in rat after intraperitoneal administration of a dose of 40 mg/kg; assay type: functional; conditions: ip
[6] = system: Rattus norvegicus; experiment: Compound was evaluated in vivo for its antipsychotic activity for inhibition of apomorphine-induced stereotypy in rat; assay type: functional
[7] = system: Rattus norvegicus; experiment: Compound was evaluated in vivo for its antipsychotic activity for inhibition of apomorphine-induced stereotypy in rat after intraperitoneal administration of a dose of 10 mg/kg; assay type: functional; conditions: ip
[8] = system: Mus musculus; experiment: In vivo for its effective dose for inhibition of apomorphine-induced climbing in mice after intraperitoneal administration at a dose 20 mg/kg; assay type: functional; conditions: ip
[9] = system: Rattus norvegicus; experiment: Compound was evaluated in vivo for its antipsychotic activity for inhibition of apomorphine-induced stereotypy in rat after intraperitoneal administration of a dose of 13 mg/kg; assay type: functional; conditions: ip
[10] = system: Rattus norvegicus; experiment: Compound was evaluated in vivo for its antipsychotic activity for inhibition of apomorphine-induced stereotypy in rat after intraperitoneal administration of a dose of 40 mg/kg value represented as percent inhibition; assay type: functional; conditions: ip
[11] = system: Rattus norvegicus; experiment: Compound evaluated in vivo for its antipsychotic activity for inhibition of apomorphine-induced stereotypy in rat after intraperitoneal administration of a dose of 13 mg/kg; assay type: functional; conditions: ip
[12] = system: Rattus norvegicus; experiment: Compound was evaluated in vivo for its antipsychotic activity for inhibition of apomorphine-induced stereotypy in rat after intraperitoneal administration at a dose of 40 mg/kg; assay type: functional; conditions: ip

Compound | IC50 [1] | IC50 [2] | ED50 [3] | IC50 [4] | further results
O=C(NCCCN1CCC(c2noc3cc(Cl)ccc23)CC1)c1nsc2ccccc12 | 3720 nM | 93.8 nM | > 20 mg/kg | 115 nM | –
COc1ccccc1N1CCN(CCCNC(=O)c2nsc3ccccc23)CC1 | 84.7 nM | 18.3 nM | 13 mg/kg | 3110 nM | inhibition in vivo at 40 mg/kg [5]: 17%
CN(CCCCN1CCN(c2csc3cc(F)ccc23)CC1)C(=O)c1noc2ccccc12 | 128 nM | 3.2 nM | – | 188 nM | ED50 [6]: 52 mg/kg
CN(CCCCN1CCC(c2noc3cc(F)ccc23)CC1)C(=O)c1nsc2ccccc12 | 160 nM | 174 nM | – | 13 nM | inhibition in vivo at 10 mg/kg [7]: 67%
CN(CCCCN1CCN(c2csc3cc(F)ccc23)CC1)C(=O)c1nsc2ccccc12 | 366 nM | 6.3 nM | – | 232 nM | ED50 [6]: 33 mg/kg
COc1ccccc1N1CCN(CCNC(=O)c2noc3ccccc23)CC1 | 21 nM | 2.1 nM | > 20 mg/kg | 391 nM | –
CN1CCN(CCNC(=O)c2nsc3ccccc23)CC1 | > 10000 nM | > 10000 nM | > 20 mg/kg | > 10000 nM | –
O=C(NCCN1CCN(c2nsc3ccccc23)CC1)c1nsc2ccccc12 | 98 nM | 19 nM | > 20 mg/kg | 475 nM | –
O=C(NCCN1CCC(C(=O)c2ccc(F)cc2)CC1)c1nsc2ccccc12 | 920 nM | 15.7 nM | 3.64 mg/kg | 17 nM | ED50 [6]: 25.7 mg/kg
CN(CCCCN1CCN(c2nsc3ccccc23)CC1)C(=O)c1nsc2ccccc12 | 18.6 nM | 5.8 nM | – | 13 nM | ED50 [8]: 2.49 mg/kg; ED50 [6]: 39.2 mg/kg
COc1ccccc1N1CCN(CCNC(=O)c2nsc3ccccc23)CC1 | 3.9 nM | 4.1 nM | – | 550 nM | ED50 [6]: 51.8 mg/kg
CN(CCCN1CCC(C(=O)c2ccc(F)cc2)CC1)C(=O)c1noc2ccccc12 | 6650 nM | 43 nM | > 20 mg/kg | 123 nM | –
COc1ccccc1N1CCN(CCCN(C)C(=O)c2nsc3ccccc23)CC1 | 149 nM | 10.7 nM | > 20 mg/kg | 1650 nM | –
CN(CCN1CCC(C(=O)c2ccc(F)cc2)CC1)C(=O)c1nsc2ccccc12 | 2500 nM | 75.3 nM | 8 mg/kg | 51 nM | –
O=C(NCCN1CCN(c2cccc(Cl)c2)CC1)c1nsc2ccccc12 | 51.6 nM | 81.5 nM | > 20 mg/kg | 726 nM | –
CN1CCN(C2=Nc3cc(Cl)ccc3Nc3ccccc32)CC1 [CLOZAPINE] | – | – | – | – | inhibition in vivo at 40 mg/kg [5]: 33%

Compound | IC50 [1] | IC50 [2] | ED50 [3] | IC50 [4] | further results
CN(CCN1CCC(C(=O)c2ccc(F)cc2)CC1)C(=O)c1noc2ccccc12 | 1790 nM | 108.2 nM | 13.4 mg/kg | 27 nM | –
CN(CCN1CCC(c2noc3cc(F)ccc23)CC1)C(=O)c1noc2ccccc12 | 440 nM | 104 nM | 1.3 mg/kg | 17.6 nM | inhibition in vivo at 13 mg/kg [9]: 33%
CN(CCCCN1CCC(C(=O)c2ccc(F)cc2)CC1)C(=O)c1nsc2ccccc12 | 339 nM | 3.2 nM | 8.2 mg/kg | 30.2 nM | inhibition in vivo at 40 mg/kg [5]: 60%
O=C(NCCN1CCC(n2c(O)nc3ccccc32)CC1)c1nsc2ccccc12 | – | 39.8 nM | > 20 mg/kg | 641 nM | –
O=C(NCCN1CCN(c2csc3cc(F)ccc23)CC1)c1noc2ccccc12 | 1040 nM | > 10000 nM | – | 309 nM | inhibition in vivo at 40 mg/kg [5]: 17%
CC(C)N(CCN1CCC(c2noc3cc(F)ccc23)CC1)C(=O)c1noc2ccccc12 | – | 5.5 nM | 1.3 mg/kg | 29.7 nM | –
CC(C)N(CCCN1CCC(C(=O)c2ccc(F)cc2)CC1)C(=O)c1noc2ccccc12 | 2300 nM | 124 nM | 20.2 mg/kg | 290 nM | –
COc1ccccc1N1CCN(CCCCNC(=O)c2nsc3ccccc23)CC1 | 2.3 nM | 6.4 nM | 7.24 mg/kg | 724 nM | inhibition in vivo at 40 mg/kg [10]: 83%
CN(CCCN1CCC(C(=O)c2ccc(F)cc2)CC1)C(=O)c1nsc2ccccc12 | 4670 nM | 6.11 nM | 7.7 mg/kg | 68 nM | –
Cc1nc2n(c(=O)c1CCN1CCC(c3noc4cc(F)ccc34)CC1)CCCC2 [RISPERIDONE] | – | – | 0.062 mg/kg | – | ED50 [6]: 3.2 mg/kg
O=C(NCCN1CCN(Cc2ccccc2)CC1)c1nsc2ccccc12 | 1880 nM | 2570 nM | > 20 mg/kg | – | –
CN(CCN1CCC(c2noc3cc(F)ccc23)CC1)C(=O)c1nsc2ccccc12 | 820 nM | 9.4 nM | 1.7 mg/kg | 32.8 nM | inhibition in vivo at 13 mg/kg [11]: 50%
COc1ccccc1N1CCN(CCCCN(C)C(=O)c2nsc3ccccc23)CC1 | 4 nM | 3.3 nM | 9.61 mg/kg | – | inhibition in vivo at 40 mg/kg [5]: 100%
O=C(NCCN1CCC(c2noc3cc(Cl)ccc23)CC1)c1nsc2ccccc12 | 3450 nM | 239 nM | > 20 mg/kg | 215 nM | –
O=C(NCCCCN1CCN(c2nsc3ccccc23)CC1)c1nsc2ccccc12 | 18 nM | 5 nM | – | 201 nM | inhibition in vivo at 40 mg/kg [12]: 17%

— ChEMBL document CHEMBL1127849, “Benzisoxazole- and benzisothiazole-3-carboxamides as potential atypical antipsychotic agents” (J Med Chem, 1994)
